Data taken from patent US6495370B1, “Inhibition of glutathione transferase by haloenol lactones” (The Regents of the University of California, priority 1995, dated 2002).
Read-outs that look alike come from different tables or passages of the source.

What was measured:
Assay type in all cases: biochemical
[1] = target: T1, GST pi isozyme (Mus musculus, UniProt P19157); assay: Time-dependent inhibition of GST pi with and without S-hexylglutathione; details: haloenol lactone 2 200 μM
T1 construct: The three major mouse liver GST isoenzymes were purified according to established methods; from tissue; host or cells: liver of male CD-1 mice
Experimental: FIG. 7: Inactivation of glutathione S-transferase (GST) pi isozyme by haloenol lactone 2. The GST concentration was 1.0 μM): ●, control; ▴, +haloenol lactone 2 (200 μM), no S-hexylglutathione; ▪, +haloenol lactone 2 (200 μM), +S-hexylglutathione (2,000 μM).
Enzyme inhibition studies and enzyme assays for this experiment were performed as described in Example 3. S-hexylglutathione dissolved in a 0.1 M potassium phosphate buffer (pH 6.5) was added in the incubation solution. […] In this experiment, we incubated compound 2 with GST-pi isozyme in the presence of S-hexylglutathione (2,000 μM), a competitive inhibitor of GST. […] (See FIG. 7).

[2] = target: T2, GST alpha (Mus musculus, UniProt P30115); assay: Time-dependent inhibition of purified GST alpha isoenzyme (GSH/CDNB activity assay); details: 100 μM compound, GST 1.0 μM, after 5 minutes at 37° C.
T2 construct: The three major mouse liver GST isoenzymes were purified according to established methods; from tissue; host or cells: liver of male CD-1 mice
T2 sequence (P30115 2-221 limits assumed): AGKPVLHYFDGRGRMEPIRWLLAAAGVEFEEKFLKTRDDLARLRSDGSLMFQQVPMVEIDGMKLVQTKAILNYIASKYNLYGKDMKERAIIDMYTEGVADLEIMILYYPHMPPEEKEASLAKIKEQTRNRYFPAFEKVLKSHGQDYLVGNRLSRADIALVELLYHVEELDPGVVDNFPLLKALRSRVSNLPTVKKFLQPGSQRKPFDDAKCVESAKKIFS
Experimental: (§1) The three major mouse liver GST isoenzymes were purified according to established methods. Male CD-1 mice, 25-35 g, were purchased from Charles River Breeding Laboratories, Inc. (Wilmington, Mass.). Animals were housed on autoclaved pine shavings in approved animal care facilities and fed ad libitum for 1 week prior to cervical dislocation.
(§2) Mice were killed by cervical dislocation and livers were removed, rinsed with ice-cold 10 mM Tris buffer (pH 7.4) containing 0.25 M sucrose, 1 mM EDTA and 1 mM DTT (buffer A). The tissues were homogenized in buffer A (1 g tissue/2 mL buffer). Centrifugation and all subsequent purification steps were carried out at 4° C. […] Column eluants were monitored at 280 nm using an Isco-UA5 detector. […] Pooled proteins were analyzed by ESI/MS to determine purity and subunit molecular weight. […]
(§3) For the enzyme inhibition studies, solutions of alpha, mu and pi glutathione S-transferase (1.0 μg/μl) were prepared in a 0.1 M potassium phosphate buffer (pH 6.5). […] Aliquots were withdrawn at 1, 3, 5, 8 and 12 min, and GST activity was measured using GSH and CDNB as substrates according to the method of Habig et al. (1974) J. Biol. Chem. 249:7130-7139.
(§4) In brief, the activity of the enzyme was determined in a 0.1 M potassium phosphate buffer (pH 6.5) containing 1 mM GSH and 1 mM CDNB using an extinction coefficient of 9.6 mM^−1 cm^−1. […]

[3] = target: T3, GST pi isoenzyme (Mus musculus, UniProt P19157); assay: Kinetic constants for inhibition of GST pi isoenzyme
T3 construct: The three major mouse liver GST isoenzymes were purified according to established methods; from tissue; host or cells: liver of male CD-1 mice
Experimental: Compounds 1 and 2 were synthesized and purified as described in Example 1, and GST pi isoenzyme was isolated from mouse liver as described in Example 2. Enzyme inhibition studies were performed as described in Example 3, except that four different concentrations of inhibitor were used. Enzyme assays were performed as described in Example 3.

[4] = target: T4, GST mu (Mus musculus, UniProt P10649); assay: Time-dependent inhibition of purified GST mu isoenzyme (GSH/CDNB activity assay); details: 100 μM compound, GST 1.0 μM, after 5 minutes at 37° C.
T4 construct: The three major mouse liver GST isoenzymes were purified according to established methods; from tissue; host or cells: liver of male CD-1 mice
T4 sequence (P10649 2-218 limits assumed): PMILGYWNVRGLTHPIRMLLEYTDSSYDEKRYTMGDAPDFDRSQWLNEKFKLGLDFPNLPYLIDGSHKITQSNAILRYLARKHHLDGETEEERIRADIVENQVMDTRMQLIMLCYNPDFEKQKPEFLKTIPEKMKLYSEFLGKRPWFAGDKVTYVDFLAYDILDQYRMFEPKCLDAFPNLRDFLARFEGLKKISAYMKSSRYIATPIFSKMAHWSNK
Experimental: as §1, §2, §3, §4

[5] = target: T3, GST pi isoenzyme; assay: Time-dependent inhibition of purified GST pi isoenzyme (GSH/CDNB activity assay); details: for enzyme activity of GST pi: 100 μM compound, GST 1.0 μM, after 5 minutes at 37° C.; for nature of inhibitory effect on GST pi isozyme: summary statement
Experimental: as §1
Mice were killed by cervical dislocation and livers were removed, rinsed with ice-cold 10 mM Tris buffer (pH 7.4) containing 0.25 M sucrose, 1 mM EDTA and 1 mM DTT (buffer A). The tissues were homogenized in buffer A (1 g tissue/2 mL buffer). Centrifugation and all subsequent purification steps were carried out at 4° C. The homogenate was centrifuged at 10,000 g for 30 min. The supernatant fraction was then collected and centrifuged at 100,000 g for 80 min. Supernatant was next passed through a Sephadex G-25 Column (100 cm×2.5 cm) which had been pre-equilibrated in 25 mM potassium phosphate buffer (pH 7.4) containing 1 mM EDTA and 1 mM DTT (buffer B). Column eluants were monitored at 280 nm using an Isco-UA5 detector. The elutant from the G-25 column containing GST activity was applied to an affinity column (11 cm×2.5 cm, GSH-linked agarose, Sigma) at a flow rate of 0.64 ml/min. The first two GST isozymes were eluted using a linear gradient (0-75 mM) of GSH in buffer b (250 mL×250 mL). The third peak containing activity towards CDNB was eluted by using a linear gradient of increasing pH (7.4-9.0) in buffer b which was 75 mM in GSH (150 mL×150 mL). The three main peaks of activity were recovered and pooled separately. Each pool was concentrated to 25-30 mL in an Amicon ultrafiltration cell (Amicon, Inc., Beverly, Mass., USA) with a PM 10 membrane and dialyzed against 4L nanopure water. Pooled proteins were analyzed by ESI/MS to determine purity and subunit molecular weight. […]
as §3
In brief, the activity of the enzyme was determined in a 0.1 M potassium phosphate buffer (pH 6.5) containing 1 mM GSH and 1 mM CDNB using an extinction coefficient of 9.6 mM^−1 cm^−1. […] The rate of product formation was monitored by measuring the change in absorbance at 340 nm using a Shimadzu PC-2101 uv-visible spectrophotometer (Shimadzu Scientific Instruments, Columbia, Md., USA). Specific activities are based on protein concentrations as determined by the Bradford protein determination kit from Biorad, Hercules, Calif., USA, using bovine serum albumin as a reference.

[6] = target: T1, GST pi isozyme; assay: Irreversible inhibition of GST pi: activity after incubation and exhaustive dialysis; details: 10-fold excess of compound, 37° C., 3 hours, then dialysis against 6 changes of water
Experimental: The dialyzed protein sample was dried by lyophilization. The recovered protein was re-dissolved in water, and specific enzyme activity was determined by measuring the protein content and GST activity.

[7] = GST pi 1.0 μM, 37° C., four inhibitor concentrations

T1 sequence (P19157 2-210 limits assumed): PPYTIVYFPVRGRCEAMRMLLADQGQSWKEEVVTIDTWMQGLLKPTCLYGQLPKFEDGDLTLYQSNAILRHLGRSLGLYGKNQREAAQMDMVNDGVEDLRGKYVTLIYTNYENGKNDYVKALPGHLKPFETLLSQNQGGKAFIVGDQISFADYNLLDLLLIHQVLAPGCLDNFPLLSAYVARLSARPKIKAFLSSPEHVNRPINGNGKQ
T3 sequence (P19157 2-210 limits assumed): as above

Row | SMILES | effect of S-hexylglutathione on time-dependent inhibition of GST by compound 2 ([1]; S-hexylglutathione 2,000 μM, GST pi 1.0 μM) | enzyme activity of GST alpha remained [2] | kinact [3, 7] [s⁻¹] | Ki ([3]; GST pi 1.0 μM, 37° C., four inhibitor concentrations, read-out: KI) [µM] | kinact/KI ([3]; GST pi, read-out: kinact/KI ratio (converted)) [M⁻¹ s⁻¹] | enzyme activity of GST mu remained [4] | enzyme activity of GST pi [5] | nature of inhibitory effect on GST pi isozyme [5] | Ki [3] [µM] | kinact/KI ([3]; read-out: kinact/KI ratio) [M⁻¹ s⁻¹] | enzyme activity of modified GST remained relative to the control [6] [%] | restoration of GST activity by exhaustive dialysis [6] | time in which the enzyme was totally inactivated ([1]; GST 1.0 μM, no S-hexylglutathione) [min]
1 | CCCCCCSC[C@H](NC(=O)CC[C@H](N)C(=O)O)C(=O)NCC(=O)O [S-hexylglutathione, reference compound] | completely suppressed |  |  |  |  |  |  |  |  |  |  |  | 
2 | O=C1O/C(=C/Br)CC1CC1OC1c1ccccc1 (stereo not drawn) [compound 1, 3-Cinnamyl-(α,β-epoxy)-5(E)-bromomethylidenetetrahydro-2-furanone] |  | about 80% | 0.0198 | 64.4 | 308 | about 80% | completely inhibited | time-dependent and irreversible |  |  |  |  | 
3 | O=C1O/C(=C/Br)CC1CC=Cc1ccccc1 (stereo not shown) [compound 2, 3-Cinnamyl-5(E)-bromomethylidenetetrahydro-2-furanone] |  |  | 0.00933 |  |  |  | completely inhibited | time-dependent and irreversible | 86.7 | 108 | 7.8 | not restored | 8
